Patent US4956355A, “Agents for the arrest and therapy of retroviral infections” (Colthurst Limited, priority 1987, dated 1990)

Tests used:
[1] = system: HIV in VB T lymphoma cell line; experiment: Inhibition of HIV mediated cytopathic effects (multinucleated giant/syncytial cell formation) in acutely infected VB tumor cell line; format: cell-based
Description: (§1) 1. […] All three viral strains were grown in the Tissue Culture Laboratory of the AIDS Activity Division of San Francisco General Hospital where titers of […] infectious units per ml were routinely achieved.
(§2) 2. Source of cells: The VB cell line used in Example 1 is a T lymphoma cell line that is highly susceptible to infection with HIV, and expresses high levels of cell surface CD4 molecules. This cell line forms syncytia within two days after infection with all strains of HIV tested to date. […] This is used to quantitate infection in the absence of syncytial formation, infection being quantitated by immunofluorescence assays. The HXB/H9 cell line (Example 6) is an H9 cell population that chronically produces the HTLV-IIIB strain of HIV and is utilised in experiments testing antiviral effects on chronically infected cell lines. Human macrophages were prepared from peripheral blood mononuclear cells either obtained from the blood bank as a buffy coat, or as a leukophoresis preparation. Crowe et al. supra have devised an assay system that allows quantitation of HIV infection, and inhibition of infection using immunocytofluorographic analysis. In order to quantitate HIV infection in macrophages, they grow macrophages in Teflon (Trade Mark) culture vessels which maintain macrophages in suspension in vitro culture for up to six months. Cell surface and cytoplasmic immunofluorescence staining is then performed to quantitate antigens in macrophages by flow cytometry.
5. Inhibition of acute infection: Several assays were utilized to test for inhibition of acute infection; these included:
(a) Inhibition of multinucleated giant cell formation in acutely infected VB cells infected at a multiplicity of infection of 1, and scored two days after infection in the presence or absence of varying concentrations of drug, for the formation of multinucleated giant cells. (free virus is washed out after a one hour incubation pretreatment at room temperature). […] Supernatants were also isolated and the level of HIV p24 antigen determined. Infectious virus was measured in treated cultures by performing a syncytial assay as described above.
Compounds A and B were tested for inhibition of T lymphoma cell cytopathic effect at various drug concentrations after acute infection with HIV for 48 hours. […] It is possible that the diminished effects noted in later experiments could have been secondary to drug stability problems.

[2] = system: HIV in human macrophages; experiment: Inhibition of HIV production in normal human macrophages (supernatant p24, acute infection); format: cell-based
Description: as §1, §2
4. HIV soluble p24 antigen detection: Soluble p24 antigens were measured with the Abbott HIV antigen detection system.
(c) To test whether Compounds A and B were effective at blocking acute infection of macrophages, macrophages from Teflon cultures were exposed at a multiplicity of 1 to HIV-DV in the presence or absence of various concentrations of drug (Examples 3-5). Normally, HIV expression peaks in human macrophages at approximately ten days after initial infection. Therefore, after infection for one hour at room temperature, followed by a wash and resuspension of the macrophages in various drug concentrations, macrophages were stained for the presence of p24 antigen at day ten. Culture supernatants from these macrophages were assayed for the presence of soluble p24, and infectious virus as described above.
To test whether compounds A and B might be active at inhibiting infection of normal human macrophages, a spectrum of drug concentrations were tested for inhibition of acute infection, and inhibition of HIV expression in chronically infected macrophages. […] After acute infection (one hour) cells were incubated in various concentrations of compounds A and B, and 7 days after the initial infection supernatants were harvested for p24 antigen quantitation. […]

[3] = system: HIV in human macrophages; experiment: Inhibition of cytoplasmic HIV p24 antigen in HIV-infected macrophages; format: cell-based; conditions: FIG. 4
Description: as §1, §2
3. Flow cytometry: An Ortho Cytofluorgraf II-S (Trade Mark) that has a biohazard containment flow cell was used for analysis of HIV infected samples. HIV p24 antigens were detected utilizing a mouse monoclonal anti-p24 (du Pont), and mouse antibodies were identified utilizing an FITC conjugated goat anti-mouse IgG. […]
The cells from the experiment described in Example 3 were analysed, and the cytoplasm was analysed for the presence of HIV p24 to directly test whether HIV p24 antigen production was inhibited within those infected cells. […]

[4] = system: HIV in HXB/H9 cell line; experiment: Antiviral testing of chronically HIV infected cell line HXB; format: cell-based; conditions: other than killing with compound B at 10^-4 molar
Description: as §1
as §2, with “Human macrophages were prepared from peripheral blood mononuclear cells either obtained from the blood bank as a buffy coat, or as a leukophoresis preparation.” left out, “cytometry. […]” for “cytometry.”

[5] = system: HIV; experiment: Use of dehydroepiandrosterone in AIDS therapy, twelve patients; format: in vivo, human patients
Description: Twelve patients all of whom were sero-positive for HIV and had been diagnosed as suffering from AIDS were treated with DHEA for up to six months. The DHEA was administered in the form of hard gelatin capsules containing 100 mg of DHEA and at a rate of 100 mg to 600 mg per day. The vast majority being on 500 mg per day in divided doses. The patients were all homosexual or bisexual males with an average age of 34.5 years and an average weight of 69.6 kg.
Past and present HIV clinical manifestations included: unexplained diarrhoea, Kaposis Sarcoma, Herpes Zoster, Oral Candidiasis, Lymphadenopathy, Oral Hairy Leucoplakia, involuntary weight loss, dermal mycoses and Stapholococcal skin infections.
All of the patients were in an advanced stage of AIDS at the commencement of the trial and normally further deterioration of their condition, or even death, would have been expected over the six month period of the trial. […] Patient 7 gained 8 kg over five months.

[6] = system: NADH oxidase; conditions: cited from earlier work
[7] = system: mitotic activity; conditions: cited from earlier work
[8] = in vivo; cited from earlier work

C[C@]12CC[C@H](O)CC1=CC[C@@H]1[C@@H]2CC[C@]2(C)C(=O)CC[C@@H]12 [A, dehydroepiandrosterone]
antiviral effects in comparison with AZT, T lymphoma cells ([1]; acute infection): inferior | antiviral effect in acute infection studies of T lymphoma cells ([1]; acute infection, conclusions): mild antiviral effect | inhibition of cytopathic effect in two subsequent experiments ([1]; compounds diluted in DMSO, possibly secondary to drug stability problems): less striking effect | decrease in production of HIV p24 antigens (supernatant) ([2]; 10^-4 through 10^-8 molar, 7 days after acute infection, FIG. 3): approximately 50% | HIV infection and HIV expression in macrophages ([2]; in vitro, reproducible, six separate monocyte/macrophage donors): inhibit HIV infection and HIV expression in macrophages | HIV p24 cytoplasmic antigen production ([3]; 10^-4 molar, three donors): substantially inhibited | inhibiting HIV p24 antigen production within infected macrophages ([3]; dilutions even at 10^-6 molar): active | inhibition of HIV production of cytopathic effects in chronically infected lymphoma cell line [4]: no specific inhibition | patients gaining weight ([5]; of twelve patients, up to six months): four | deterioration in condition ([5]; oral, 100 mg to 600 mg per day, up to six months, twelve advanced AIDS patients): no serious deterioration in condition | weight gain of Patient 7 ([5]; over five months): 8 kg | effect on NADH oxidase [6]: inhibitory effect | effect on mitotic activity [7]: inhibitory effect | metabolic disorders and liver cirrhosis [8]: suppress some of the metabolic disorders and liver cirrhosis | pain in ischemic heart disease, especially angina pectoris [8]: reduces pain
